Data taken from patent US20110288045A1, “WET GRANULATION OF TENOFOVIR, EMTRICITABINE AND EFAVIRENZ” (ULTIMORPHIX TECHNOLOGIES B.V., priority 2008, published 2011).
“Also recorded” adds a separate entry of the source. Where a name gives a salt, the structure may show the parent alone. Read-outs that look alike come from different tables or passages of the source.

How the values were obtained:
[1] = Stability testing at 33 weeks of wet granulated Truvada and Atripla combination formulations, by HPLC; assay type: physicochemical
Protocol: Stability Testing at 33 Weeks
The stability of the Truvada and Atripla combination formulations after wet granulation was checked by HPLC after 33 weeks storage under 75% Relative Humidity (RH) and 40° C.
Two types of formulations were prepared for each combination, one containing the Tenofovir Disoproxil Fumarate and the other one containing the Tenofovir Disoproxil Hemifumarate co-crystal. In both combinations, water content of 30 and 40% was prepared.

[2] = wet granulation of the three drugs (Efavirenz, Tenofovir DF, Emtricitabine) together; US2007099902A1, EP1890681; cited from earlier work
[3] = HPLC assay for degradation products after wet granulation; assay type: physicochemical; conditions: for Impurity peaks of Tenofovir disoproxil at 26.57 and 36.0 min (HPLC): wet granulation with Emtricitabine (Table 1)
Protocol: Analytical Methods: HPLC Assay for Degradation Product
Emtricitabine/Tenofovir disoproxil (Fumarate or Hemifumarate) granules are assayed by HPLC for Emtricitabine and Tenofovir disoproxil (Fumarate or Hemifumarate) using external references as described in US2007/0077295. The presence of degradation products are determined by area normalization. The identities of Emtricitabine and Tenofovir disoproxil (Fumarate or Hemifumarate) are confirmed by comparison of their retention times with those of the reference standards.
Approximately 6520 mg of Emtricitabine/Tenofovir disoproxil (Fumarate or Hemifumarate) granules was weighted into a 1 L volumetric flask. Added was 400 mL 25 mM phosphate buffer, pH 3 to the volumetric flask. Mixing was performed by stirring vigorously for about 75 minutes. 50:50 acetonitrile: methanol was added to the flask to approximately 2 cm below the 1 L mark. The solution was equilibrated to ambient temperature by mixing for 1 hour. The volume was diluted to 1 L with 50:50 acetonitrile: methanol and mixed well by stirring with a magnetic stirring bar. Using a 0.45 μm syringe filter with a syringe, approximately 10 mL for the next dilution was filtered. The first 2 mL of the filtrate was discarded. A class A pipette was used to transfer 5.0 mL of the filtrate into a 50 mL volumetric flask and dilute the to volume with sample solvent (40:30:30). […]
A composition comprising the ingredients and ratios as listed in table 1 are subjected to a standard wet granulation process with respectively 30% and 40% w/w water. The quality of the granulation was assessed visually. […]
A composition comprising the ingredients and ratios as listed in table 2 were subjected to a standard wet granulation process with respectively 30% and 40% w/w water. The quality of the granulation was assessed visually. […]
A composition comprising the ingredients and ratios as listed in Table 1 are subjected to a standard wet granulation process with respectively 30% and 40% w/w water. The quality of the granulation was assessed visually. […]

| Molecule | Degradation of Tenofovir disoproxil salt (HPLC chromatogram) [1] | Stability of Tenofovir DF [2] | Chemical stability during wet granulation (overall conclusion) ([3]; Truvada (table 1) and Atripla (table 2) formulations, 30% and 40% w/w water) | Impurity peaks of Tenofovir disoproxil at 26.57 and 36.0 min (HPLC) ([3]; 30% w/w high pure water) | Impurity peaks of Tenofovir disoproxil at 26.57 and 36.0 min (HPLC) ([3]; 40% w/w high pure water) | Degradation of Tenofovir disoproxil salt (HPLC chromatogram) ([1]; Atripla sample prepared with 30% water, 33 weeks, 75% RH, 40° C.) | Degradation of Tenofovir disoproxil salt (HPLC chromatogram) ([1]; Atripla sample prepared with 40% water, 33 weeks, 75% RH, 40° C.) | Degradation of Tenofovir disoproxil salt (HPLC chromatogram) ([1]; Truvada sample prepared with 30% water, 33 weeks, 75% RH, 40° C.) | Degradation of Tenofovir disoproxil salt (HPLC chromatogram) ([1]; Truvada sample prepared with 40% water, 33 weeks, 75% RH, 40° C.) |
| --- | --- | --- | --- | --- | --- | --- | --- | --- | --- |
| CC(C)OC(=O)OCOP(=O)(CO[C@H](C)Cn1cnc2c(N)ncnc21)OCOC(=O)OC(C)C [Tenofovir disoproxil fumarate] | to a large extent | degraded rapidly; also recorded: unstable | – | – | – | – | – | – | – |
| Tenofovir disoproxil hemifumarate | – | – | stable | not observed | not observed | no degradation | less degradation | small degradation | small degradation |
